Numbers after ± are expanded uncertainties.
Assay: xn = mol fraction of the nth substance listed
Details: 101 kPa, Liquid; for speed of sound: Linear variable-path acoustic interferometer; for mass density: Vibrating tube method; for viscosity: dual vibrating plate viscometer, AandD Co. Ltd Model SV-10

CC(=O)[O-].CC[NH2+]CC [diethylammonium acetate] + CN1CCCC1=O
Details | mass density [kg/m3] | speed of sound [m/s] | viscosity [mPa·s]
298.15 K, x1 = 0.0234 | 1026.53 ± 0.31 | 1570 ± 2 | 1.83 ± 0.04
298.15 K, x1 = 0.0473 | 1027.19 ± 0.31 | 1570 ± 2 | 1.82 ± 0.04
298.15 K, x1 = 0.1188 | 1028.41 ± 0.31 | 1576 ± 2 | 2.26 ± 0.05
298.15 K, x1 = 0.1668 | 1029.09 ± 0.31 | 1575 ± 2 | 2.67 ± 0.06
298.15 K, x1 = 0.2393 | 1029.73 ± 0.31 | 1563 ± 2 | 3.57 ± 0.08
298.15 K, x1 = 0.3616 | 1030.18 ± 0.31 | 1527 ± 2 | 5.62 ± 0.12
298.15 K, x1 = 0.411 | 1030.19 ± 0.31 | 1510 ± 2 | 6.49 ± 0.14
298.15 K, x1 = 0.4856 | 1029.95 ± 0.31 | 1487 ± 2 | 7.94 ± 0.17
298.15 K, x1 = 0.6115 | 1028.88 ± 0.31 | 1458 ± 2 | 10.53 ± 0.22
298.15 K, x1 = 0.7391 | 1027.18 ± 0.31 | 1454 ± 2 | 13.14 ± 0.27
298.15 K, x1 = 0.8686 | 1024.96 ± 0.31 | 1486 ± 2 | 15.33 ± 0.32
298.15 K, x1 = 0.9493 | 1023.14 ± 0.31 | 1539 ± 2 | 16.26 ± 0.34
298.15 K, x1 = 0.9758 | 1022.3 ± 0.31 | 1562 ± 3 | 16.41 ± 0.34
298.15 K, x1 = 1 | 1021.41 ± 0.31 | 1608 ± 2 | 16.36 ± 0.34
303.15 K, x1 = 0.0234 | 1024.14 ± 0.3 | 1555 ± 2 | 1.6 ± 0.03
303.15 K, x1 = 0.0473 | 1024.34 ± 0.31 | 1557 ± 2 | 1.66 ± 0.03
303.15 K, x1 = 0.1188 | 1025.34 ± 0.31 | 1563 ± 2 | 2.03 ± 0.04
303.15 K, x1 = 0.1668 | 1025.85 ± 0.31 | 1565 ± 2 | 2.34 ± 0.05
303.15 K, x1 = 0.2393 | 1026.2 ± 0.31 | 1556 ± 2 | 3.09 ± 0.07
303.15 K, x1 = 0.3616 | 1026.29 ± 0.31 | 1523 ± 2 | 4.89 ± 0.1
303.15 K, x1 = 0.411 | 1026.22 ± 0.31 | 1508 ± 2 | 5.6 ± 0.12
303.15 K, x1 = 0.4856 | 1025.78 ± 0.31 | 1488 ± 2 | 6.88 ± 0.14
303.15 K, x1 = 0.6115 | 1024.47 ± 0.31 | 1460 ± 2 | 9.13 ± 0.19
303.15 K, x1 = 0.7391 | 1022.47 ± 0.31 | 1458 ± 2 | 11.3 ± 0.23
303.15 K, x1 = 0.8686 | 1019.99 ± 0.31 | 1494 ± 2 | 13.05 ± 0.27
303.15 K, x1 = 0.9493 | 1018.04 ± 0.31 | 1552 ± 2 | 13.74 ± 0.28
303.15 K, x1 = 0.9758 | 1017.29 ± 0.31 | 1574 ± 2 | 13.82 ± 0.29
303.15 K, x1 = 1 | 1016.52 ± 0.3 | 1612 ± 2 | 13.64 ± 0.28
308.15 K, x1 = 0.0234 | 1019.65 ± 0.3 | 1531 ± 2 | 1.48 ± 0.03
308.15 K, x1 = 0.0473 | 1019.91 ± 0.3 | 1536 ± 2 | 1.67 ± 0.04
308.15 K, x1 = 0.1188 | 1020.3 ± 0.31 | 1546 ± 2 | 1.87 ± 0.04
308.15 K, x1 = 0.1668 | 1020.67 ± 0.31 | 1548 ± 2 | 2.15 ± 0.05
308.15 K, x1 = 0.2393 | 1020.89 ± 0.31 | 1542 ± 2 | 2.84 ± 0.06
308.15 K, x1 = 0.3616 | 1020.97 ± 0.31 | 1514 ± 2 | 4.45 ± 0.09
308.15 K, x1 = 0.411 | 1020.77 ± 0.31 | 1502 ± 2 | 5.1 ± 0.11
308.15 K, x1 = 0.4856 | 1020.41 ± 0.31 | 1484 ± 2 | 6.24 ± 0.13
308.15 K, x1 = 0.6115 | 1019.23 ± 0.3 | 1462 ± 2 | 8.23 ± 0.17
308.15 K, x1 = 0.7391 | 1017.4 ± 0.3 | 1463 ± 2 | 10.18 ± 0.21
308.15 K, x1 = 0.8686 | 1015.03 ± 0.3 | 1501 ± 2 | 11.58 ± 0.24
308.15 K, x1 = 0.9493 | 1013.14 ± 0.3 | 1555 ± 2 | 12.1 ± 0.25
308.15 K, x1 = 0.9758 | 1012.47 ± 0.3 | 1580 ± 2 | 12.16 ± 0.25
308.15 K, x1 = 1 | 1011.87 ± 0.3 | 1616 ± 2 | 11.83 ± 0.24
313.15 K, x1 = 0.0234 | 1014.97 ± 0.3 | 1527 ± 2 | 1.37 ± 0.03
313.15 K, x1 = 0.0473 | 1015.32 ± 0.3 | 1532 ± 2 | 1.44 ± 0.03
313.15 K, x1 = 0.1188 | 1015.77 ± 0.3 | 1544 ± 2 | 1.75 ± 0.04
313.15 K, x1 = 0.1668 | 1016.03 ± 0.3 | 1547 ± 2 | 1.98 ± 0.04
313.15 K, x1 = 0.2393 | 1016.53 ± 0.3 | 1543 ± 2 | 2.61 ± 0.06
313.15 K, x1 = 0.3616 | 1016.79 ± 0.3 | 1520 ± 2 | 4.05 ± 0.08
313.15 K, x1 = 0.411 | 1016.77 ± 0.3 | 1509 ± 2 | 4.66 ± 0.1
313.15 K, x1 = 0.4856 | 1016.52 ± 0.3 | 1494 ± 2 | 5.67 ± 0.12
313.15 K, x1 = 0.6115 | 1015.76 ± 0.3 | 1473 ± 2 | 7.42 ± 0.15
313.15 K, x1 = 0.7391 | 1014.43 ± 0.3 | 1477 ± 2 | 9.06 ± 0.19
313.15 K, x1 = 0.8686 | 1012.59 ± 0.3 | 1515 ± 2 | 10.26 ± 0.21
313.15 K, x1 = 0.9493 | 1010.98 ± 0.3 | 1567 ± 2 | 10.62 ± 0.22
313.15 K, x1 = 0.9758 | 1010.43 ± 0.3 | 1592 ± 2 | 10.57 ± 0.22
313.15 K, x1 = 1 | 1010.08 ± 0.3 | 1617 ± 2 | 10.02 ± 0.21

Reference: the NIST ThermoML archive (doi:10.1016/j.jct.2012.03.034)
